Laboratory results reported in patent EP0436902B1, “5-Fluorouracil derivatives” (OTSUKA PHARMACEUTICAL CO., LTD., priority 1984, dated 1986).

tested on: Sarcoma-180; assay: Pharmacological Test I: antitumor effect on subcutaneously transplanted Sarcoma-180 solid tumor in mice; format: in vivo; conditions: Mus musculus, 240 h; ICR mice, Sarcoma-180 2 X 10⁷ cells subcutaneously; oral, once a day for 7 consecutive days, suspended in 5 % gum arabic; tumor weight on the 10th day; from dose-response curve; read-out: ED₅₀ (50 % tumor inhibition dose in which T/C is 0.5)
Method: Isophthaloyl chloride (1.50 g) and 6.0 ml of triethylamine were added to a solution of 1.00 g of 5-fluoro-1-(2-tetrahydrofuranyl)uracil in 50 ml of dioxane. The mixture was refluxed for 1.5 hours. The resulting precipitate was removed by filtration and the filtrate was concentrated. To the concentrate was added 50 ml of methylene chloride and thereto added was 10 ml of a solution of 1.50 g of 2,6-bis(trimethylsilyloxy)pyridine in methylene chloride. The mixture was left to stand at room temperature for 3 hours. The solvent was distilled off and the residue was subjected to silica gel column chromatography using as an eluent 2 % methanol-chloroform, giving 0.30 g of the title compound in a yield of 14 %. ¹H-NMR(CDCl₃)δ: 8.66-8.19 (3H, m, [drawing 76] 7.83-7.62 (2H, m, [drawing 77] and C₄-H of the pyridine ring) 7.52 (1H, d, J = 6Hz, C₆-H) 6.77 and 6.68 (each 1H, d, J = 8Hz, C₃·₅-H of the pyridine ring) 5.99-5.92 (1H, m, C1'-H) 4.30-3.88 (2H, m, C4'-H) 2.44-1.89 (4H, m, C2'·3'-H) Pharmacological Test I • (a) Sarcoma-180 subcultured in an ascites of ICR mice was diluted with a physiological saline solution and subcutaneously transplanted into the backs of ICR mice in an amount of 2 X 10⁷ cells each. Twenty-four hours after the transplantation, a test compound suspended in a 5 % solution of gum arabic was orally administered to each of mice once a day for 7 consecutive days.
The solid tumor was extirpated from under the dorsal skin of mice on the 10th day after the transplantation to measure the weight of the tumor. There was determined the ratio (T/C) of the weight or tumor (T) cut out from the group of mice treated with the test compound to the weight of tumor (C) from the group of mice not treated therewith. The 50 % tumor inhibition dose (ED₅₀ value) in which T/C is 0.5 was determined from the dose-response curve of dosage and the ratio (T/C).
Table 1 below lists the results together with the value obtained by using as a control an anti-cancer preparation containing 5-fluoro-1-(2-tetrahydrofuranyl)uracil and uracil in a ratio by weight of 1 to 4.

Question: For `O=C(Oc1cc(OC(=O)c2cccc(C(=O)n3c(=O)c(F)cn(C4CCCO4)c3=O)c2)c(Cl)cn1)c1ccccc1` (centres unmarked) [Example 3, 3-[3-(2-benzoyloxy-5-chloro-4-pyridyloxycarbonyl)benzoyl]-5-fluoro-1-(2-tetrahydrofuranyl)uracil], which ED50 is on record?
Answer: 25 mg/kg

Question: How did the ED50 turn out when `O=C(Oc1cc[nH]c(=O)c1)c1cccc(C(=O)n2c(=O)c(F)cn(C3CCCO3)c2=O)c1` (centres unmarked) [Example 1, 3-[3-(1,2-dihydro-2-oxo-4-pyridyloxycarbonyl)benzoyl]-5-fluoro-1-(2-tetrahydrofuranyl)uracil] was run?
Answer: 10 mg/kg

Question: For `O=C(Oc1cc(OC(=O)c2ccccc2)c(Cl)cn1)c1cccc(C(=O)n2c(=O)c(F)cn(C3CCCO3)c2=O)c1` (centres unmarked) [Example 4, 3-[3-(4-benzoyloxy-5-chloro-2-pyridyloxycarbonyl)benzoyl]-5-fluoro-1-(2-tetrahydrofuranyl)uracil], which ED50 is on record?
Answer: 18 mg/kg

Question: Which ED50 does the source give for `O=C(Oc1cc(=O)n(C2CCCO2)cc1Cl)c1cccc(C(=O)n2c(=O)c(F)cn(C3CCCO3)c2=O)c1` (centres unmarked) [Example 10, 3-[3-[5-chloro-1,2-dihydro-2-oxo-1-(2-tetrahydrofuranyl)-4-pyridyloxycarbonyl]benzoyl]-5-fluoro-1-(2-tetrahydrofuranyl)uracil] here?
Answer: 28 mg/kg

Question: With `N#Cc1ccc(OC(=O)c2ccco2)nc1OC(=O)c1cccc(C(=O)n2c(=O)c(F)cn(C3CCCO3)c2=O)c1` (centres unmarked) [Example 15, 3-[3-[3-cyano-6-(2-furoyloxy)-2-pyridyloxycarbonyl]benzoyl]-5-fluoro-1-(2-tetrahydrofuranyl)uracil] as the molecule, how does the ED50 read?
Answer: 18 mg/kg
